Test [1] has as its target T1, kinase domain protein of RC kinase (RCK) (Homo sapiens, UniProt Q56UN5).
T1 construct: made in house; host or cells: E. coli BL21-derived host (T7 phage) or HEK-293
T1 sequence (Q56UN5 1061-1324 limits assumed): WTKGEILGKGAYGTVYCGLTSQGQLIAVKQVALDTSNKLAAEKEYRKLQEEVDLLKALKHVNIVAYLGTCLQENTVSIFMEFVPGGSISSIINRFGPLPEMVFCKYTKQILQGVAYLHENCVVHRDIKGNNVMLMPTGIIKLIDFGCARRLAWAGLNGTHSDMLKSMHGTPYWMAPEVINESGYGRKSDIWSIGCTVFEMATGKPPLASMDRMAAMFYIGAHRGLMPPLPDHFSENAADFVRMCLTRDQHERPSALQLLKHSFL
The test is described as follows: Kinase competition binding assay (Kd, qPCR readout), RC kinase. The conditions noted are these: Kd class, read-out: RCK Activity Level. The essentials: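 Competition binding: DNA-tagged kinase (T7 phage or HEK-293-expressed) plus immobilized biotinylated ligand beads and compound, 1 h at room temperature, 1% DMSO. Bead-bound kinase eluted and quantified by qPCR. Kd from 11-point 3-fold dilution, top 30,000 nM, retested lower if below 0.5 nM.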
On the technique in general: Real-time PCR tracks product formation cycle by cycle.

A further test concerns the target T2, JAK2 (Homo sapiens, UniProt O60674).
T2 construct: made in house; host or cells: E. coli BL21-derived host (T7 phage) or HEK-293
The test is described as follows: Kinase competition binding assay (Kd, qPCR readout), JAK2. The following applies: for pKd: Kd class, JAK2, read-out: JAK2 Activity Level; for RCK:JAK2 selectivity ratio: ratio Kd (JAK2): Kd(RCK). The essentials: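 Competition binding: DNA-tagged kinase (T7 phage or HEK-293-expressed), immobilized biotinylated ligand beads and compound in SeaBlock/PBS/Tween/DTT buffer, 1 hour at room temperature; bound kinase eluted and quantified by qPCR. Kd from 11-point 3-fold dilution, top 30,000 nM typically, final DMSO 1%.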

A further test has as its target T3, JAK3 (Homo sapiens, UniProt P52333).
T3 construct: made in house; host or cells: E. coli BL21-derived host (T7 phage) or HEK-293
The test is described as follows: Kinase competition binding assay (Kd, qPCR readout), JAK3. The conditions noted are these: for pKd: Kd class, JAK3, read-out: JAK3 Activity Level; for RCK:JAK3 selectivity ratio: ratio Kd (JAK3): Kd (RCK). The essentials: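 Competition binding in which kinase, either T7 phage-tagged or HEK-293-expressed and DNA-tagged, was exposed to immobilized biotinylated ligand and test compound for 1 h at room temperature. Bead-bound kinase was eluted and quantified by qPCR. Kd came from 11-point 3-fold dilutions, top concentration 30,000 nM and 1% DMSO, repeated lower if below 0.5 nM.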

pKd: −log10 of the molar value.

T3 sequence (P52333 811-1124 limits assumed): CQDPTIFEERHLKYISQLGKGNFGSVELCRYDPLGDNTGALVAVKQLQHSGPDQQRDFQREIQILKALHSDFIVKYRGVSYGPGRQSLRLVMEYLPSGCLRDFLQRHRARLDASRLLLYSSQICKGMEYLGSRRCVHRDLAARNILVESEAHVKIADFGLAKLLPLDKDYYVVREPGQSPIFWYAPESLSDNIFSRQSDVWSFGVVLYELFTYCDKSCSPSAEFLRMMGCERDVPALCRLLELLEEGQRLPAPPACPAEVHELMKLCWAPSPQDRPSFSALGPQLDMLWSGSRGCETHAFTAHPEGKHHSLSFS
T2 sequence (O60674 840-1132 limits assumed): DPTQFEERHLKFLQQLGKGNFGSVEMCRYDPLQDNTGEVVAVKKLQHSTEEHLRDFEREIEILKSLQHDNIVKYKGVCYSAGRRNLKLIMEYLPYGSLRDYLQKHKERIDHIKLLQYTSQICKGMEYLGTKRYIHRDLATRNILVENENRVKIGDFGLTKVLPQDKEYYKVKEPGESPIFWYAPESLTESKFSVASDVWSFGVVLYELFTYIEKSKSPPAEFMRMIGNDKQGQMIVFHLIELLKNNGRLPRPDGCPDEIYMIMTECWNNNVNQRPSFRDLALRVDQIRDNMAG

On to `Cc1cc(CNc2[nH]nc(Nc3ccc(F)cc3)c2C(N)=O)cc(C)c1O` [Compound 42, 3-((4-fluorophenyl)amino)-5-((4-hydroxy-3,5-dimethylbenzyl)amino)-1H-pyrazole-4-carboxamide], for which the pKd (in test [1]; on JAK2; at JAK3) was less than 6.00 throughout. In addition, on JAK2, the “RCK:JAK2 selectivity ratio” value was “B (B represents 10<Kd(JAK2): Kd (RCK)<100)”. Further, the “RCK:JAK3 selectivity ratio” value at JAK3 is listed as “B (B represents 10<Kd (JAK3): Kd (RCK)<100)”.

Regarding `Cc1cc(CNc2[nH]nc(Nc3cccc(C#N)c3)c2C(N)=O)cc(C)c1O` [Compound 43, 3-((3-cyanophenyl)amino)-5-((4-hydroxy-3,5-dimethylbenzyl)amino)-1H-pyrazole-4-carboxamide], the pKd in test [1] was less than 6.00. For the same molecule, on JAK2, the pKd was less than 6.00 and the “RCK:JAK2 selectivity ratio” value is reported as “D (D represents Kd(JAK2): Kd (RCK)<1)”. On JAK3, the pKd was less than 6.00 and the “RCK:JAK3 selectivity ratio” value was “C (C represents 1<Kd (JAK3): Kd (RCK)<10)”.

On to `Cc1cc(CNc2[nH]nc(Nc3ccc(N4CCN(c5ncccn5)CC4)cc3)c2C(N)=O)cc(C)c1O` [Compound 44, 5-((4-hydroxy-3,5-dimethylbenzyl)amino)-3-((4-(4-(pyrimidin-2-yl)piperazin-1-yl)phenyl)amino)-1H-pyrazole-4-carboxamide], for which, in test [1], the pKd was 6.00 to 7.00. In addition, at JAK2, the pKd was less than 6.00 and the “RCK:JAK2 selectivity ratio” value is reported as “B (B represents 10<Kd(JAK2): Kd (RCK)<100)”. Further, on JAK3, the pKd is less than 6.00 and the “RCK:JAK3 selectivity ratio” value is “B (B represents 10<Kd (JAK3): Kd (RCK)<100)”.

In the case of `Cc1cc(CNc2[nH]nc(Nc3ccc(CN4CCCCC4)cc3)c2C(N)=O)cc(C)c1O` [Compound 45, 5-((4-hydroxy-3,5-dimethylbenzyl)amino)-3-((4-(piperidin-1-ylmethyl)phenyl)amino)-1H-pyrazole-4-carboxamide], the pKd in test [1] was more than 7.30. On JAK2, the pKd was 6.00 to 7.00 and the “RCK:JAK2 selectivity ratio” value is reported as “C (C represents 1<Kd (JAK2): Kd (RCK)<10)”. Further, on JAK3, the pKd is 6.00 to 7.00 and the “RCK:JAK3 selectivity ratio” value is “B (B represents 10<Kd (JAK3): Kd (RCK)<100)”.

`Cc1cc(CNc2[nH]nc(Nc3ccc(N4CCSCC4)cc3)c2C(N)=O)cc(C)c1O` [Compound 46, 5-((4-hydroxy-3,5-dimethylbenzyl)amino)-3-((4-thiomorpholinophenyl)amino)-1H-pyrazole-4-carboxamide]: the pKd in test [1] is more than 7.30; on JAK2, 6.00 to 7.00; at JAK3, less than 6.00. In addition, the “RCK:JAK2 selectivity ratio” value on JAK2 is listed as “B (B represents 10<Kd(JAK2): Kd (RCK)<100)”. In addition, the “RCK:JAK3 selectivity ratio” value at JAK3 was “B (B represents 10<Kd (JAK3): Kd (RCK)<100)”.

As for `Cc1cc(CNc2[nH]nc(Nc3ccc(N)cc3)c2C(N)=O)cc(C)c1O` [Compound 47, 3-((4-aminophenyl)amino)-5-((4-hydroxy-3,5-dimethylbenzyl)amino)-1H-pyrazole-4-carboxamide], the pKd in test [1] was less than 6.00. Besides, on JAK2, the pKd is less than 6.00 and the “RCK:JAK2 selectivity ratio” value is listed as “C (C represents 1<Kd (JAK2): Kd (RCK)<10)”. At JAK3, the pKd is less than 6.00 and the “RCK:JAK3 selectivity ratio” value is “C (C represents 1<Kd (JAK3): Kd (RCK)<10)”.

`Cc1cc(CNc2[nH]nc(Nc3ccc(S(N)(=O)=O)cc3)c2C(N)=O)cc(C)c1O` [Compound 48, 5-((4-hydroxy-3,5-dimethylbenzyl)amino)-3-((4-sulfamoylphenyl)amino)-1H-pyrazole-4-carboxamide]: the pKd in test [1] is 6.00 to 7.00. Also, on JAK2, the pKd is 6.00 to 7.00 and the “RCK:JAK2 selectivity ratio” value is “C (C represents 1<Kd (JAK2): Kd (RCK)<10)”. For the same molecule, at JAK3, the pKd is less than 6.00 and the “RCK:JAK3 selectivity ratio” value is listed as “B (B represents 10<Kd (JAK3): Kd (RCK)<100)”.

Take `Cc1cc(CNc2[nH]nc(Nc3ccc(N4CCC(N5CCCC5)CC4)nc3)c2C(N)=O)cc(C)c1O` [Compound 49, 5-((4-hydroxy-3,5-dimethylbenzyl)amino)-3-((6-(4-(pyrrolidin-1-yl)piperidin-1-yl)pyridin-3-yl)amino)-1H-pyrazole-4-carboxamide]: the pKd in test [1] is more than 7.30. Also, at JAK2, the pKd was 6.00 to 7.00 and the “RCK:JAK2 selectivity ratio” value is “A (A represents Kd (JAK2): Kd (RCK)>100)”. Further, at JAK3, the pKd is 6.00 to 7.00 and the “RCK:JAK3 selectivity ratio” value was “A (A represents Kd (JAK3): Kd (RCK)>100)”.

In the case of `Cc1cc(CNc2[nH]nc(Nc3ccc(N(C)C)cc3)c2C(N)=O)cc(C)c1O` [Compound 50, 3-((4-(dimethylamino)phenyl)amino)-5-((4-hydroxy-3,5-dimethylbenzyl)amino)-1H-pyrazole-4-carboxamide], the pKd in test [1] is 6.00 to 7.00; on JAK2, less than 6.00; at JAK3, less than 6.00. Further, the “RCK:JAK2 selectivity ratio” value at JAK2 is “C (C represents 1<Kd (JAK2): Kd (RCK)<10)”. Besides, the “RCK:JAK3 selectivity ratio” value on JAK3 is listed as “C (C represents 1<Kd (JAK3): Kd (RCK)<10)”.

Consider `Cc1cc(CNc2[nH]nc(Nc3ccc(CN4CCOCC4)cc3)c2C(N)=O)cc(C)c1O` [Compound 51, 5-((4-hydroxy-3,5-dimethylbenzyl)amino)-3-((4-(morpholinomethyl)phenyl)amino)-1H-pyrazole-4-carboxamide], for which the pKd in test [1] was more than 7.30. On JAK2, the pKd is 6.00 to 7.00 and the “RCK:JAK2 selectivity ratio” value is reported as “B (B represents 10<Kd(JAK2): Kd (RCK)<100)”. Besides, on JAK3, the pKd is less than 6.00 and the “RCK:JAK3 selectivity ratio” value was “B (B represents 10<Kd (JAK3): Kd (RCK)<100)”.

In the case of `COc1cccc(Nc2n[nH]c(NCc3cc(C)c(O)c(C)c3)c2C(N)=O)c1` [Compound 52, 5-((4-hydroxy-3,5-dimethylbenzyl)amino)-3-((3-methoxyphenyl)amino)-1H-pyrazole-4-carboxamide], the pKd in test [1] was less than 6.00. On JAK2, the pKd was less than 6.00 and the “RCK:JAK2 selectivity ratio” value is “C (C represents 1<Kd (JAK2): Kd (RCK)<10)”. At JAK3, the pKd is less than 6.00 and the “RCK:JAK3 selectivity ratio” value is “C (C represents 1<Kd (JAK3): Kd (RCK)<10)”.

Turning to `Cc1cc(CNc2[nH]nc(Nc3ccc(NC(=O)c4ccc(F)cc4)cc3)c2C(N)=O)cc(C)c1O` [Compound 53, 3-((4-(4-fluorobenzamido)phenyl)amino)-5-((4-hydroxy-3,5-dimethylbenzyl)amino)-1H-pyrazole-4-carboxamide], the results for the pKd (in test [1]; at JAK2; at JAK3) were 6.00 to 7.00, less than 6.00 and less than 6.00, respectively. The “RCK:JAK2 selectivity ratio” value at JAK2 is given as “A (A represents Kd (JAK2): Kd (RCK)>100)”. In addition, the “RCK:JAK3 selectivity ratio” value at JAK3 was “A (A represents Kd (JAK3): Kd (RCK)>100)”.

Turning to `Cc1cc(CNc2[nH]nc(Nc3ccc(-c4cc[nH]n4)cc3)c2C(N)=O)cc(C)c1O` [Compound 54, 3-((4-(1H-pyrazol-3-yl)phenyl)amino)-5-((4-hydroxy-3,5-dimethylbenzyl)amino)-1H-pyrazole-4-carboxamide], the pKd in test [1] is 6.00 to 7.00; at JAK2, less than 6.00; on JAK3 it was less than 6.00. Besides, the “RCK:JAK2 selectivity ratio” value at JAK2 is “B (B represents 10<Kd(JAK2): Kd (RCK)<100)”. Further, the “RCK:JAK3 selectivity ratio” value on JAK3 was “B (B represents 10<Kd (JAK3): Kd (RCK)<100)”.

The values are drawn from US9730914B2, “3,5-diaminopyrazole kinase inhibitors” (Axikin Pharmaceuticals, Inc., priority 2014, dated 2017).
